Results from patent US20190192485A1, “DOSAGE REGIMEN FOR THE TREATMENT OF ENDOMETRIOSIS” (MEREO BIOPHARMA 2 LIMITED, priority 2016, published 2019).
Converted amounts (≈) assume the structure as drawn.

How the values were obtained:
[1] = Toxicologic studies in dogs: plasma exposure after single and weekly oral dosing; type: in vivo
Text: (§1) Generally, the inter-animal variability in Cmax levels was small.

[2] = tested on: testosterone levels; experiment: Serum testosterone levels in male dogs after 1, 4 and 12 weeks of dosing; type: in vivo; details: all dose levels
Text: as §1

[3] = Single ascending dose study in pre- and post-menopausal women: safety, tolerability and PK; type: in vivo, human; details: for AUC(0-tlast) Mean / Cmax Mean / T1/2 Mean / Tmax Median: po
Text: The drug concentration in plasma and/or serum samples can be determined by a number of different ways, e.g. HPLC or LC-MS/MS analyses. […]
(§2) A minimal toxic dose (MTD) was not reached. […] Table 3 presents the PK parameters based on analysis of the concentration-time profile obtained from this study.

[4] = tested on: estrone, estrone sulfate and estradiol; experiment: Single ascending dose study in women: PD (estrogen suppression); type: in vivo, human
Text: as §2

[5] = target: T1, aromatase (Homo sapiens, UniProt P11511); experiment: Low dose study in obese men with low testosterone, with PK/PD analyses of aromatase inhibition; type: in vivo
T1 construct: high levels of aromatase in the adipose tissue; from tissue; host or cells: in vivo, human subjects (aromatase of adipose tissue)
T1 sequence (P11511 1-503): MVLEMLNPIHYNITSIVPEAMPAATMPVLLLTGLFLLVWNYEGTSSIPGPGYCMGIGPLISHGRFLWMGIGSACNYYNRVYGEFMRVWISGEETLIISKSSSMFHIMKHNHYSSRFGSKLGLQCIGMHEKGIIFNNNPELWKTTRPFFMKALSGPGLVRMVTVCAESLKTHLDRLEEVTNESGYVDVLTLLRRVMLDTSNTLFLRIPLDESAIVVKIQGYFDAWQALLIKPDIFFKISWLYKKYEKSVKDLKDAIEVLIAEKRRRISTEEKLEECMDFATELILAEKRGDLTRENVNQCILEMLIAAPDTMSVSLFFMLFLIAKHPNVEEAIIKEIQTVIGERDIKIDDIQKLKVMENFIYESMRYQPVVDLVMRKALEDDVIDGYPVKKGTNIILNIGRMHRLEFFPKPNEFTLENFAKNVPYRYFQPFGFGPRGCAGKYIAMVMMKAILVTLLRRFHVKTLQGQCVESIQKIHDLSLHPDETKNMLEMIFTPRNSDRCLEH

[6] = Tissue (fat) biopsy concentration versus plasma; type: in vivo; details: human fat biopsies, read-out: concentration in tissue (fat) relative to plasma/blood
[7] = Single 1.0 mg dose with combined oral contraceptive in premenopausal women (PK interaction, safety)
Description: The study consisted of a 49-day screening period and four consecutive 28-day (menstrual) cycles.
For the combined oral contraceptive, 30 μg of ethinyl estradiol and 0.15 mg of levonorgestrel (Seasonique®) was used. Seasonique® is an oral contraceptive designed and approved for daily administration. The 84 blue-green tablets (30-μg ethinyl estradiol and 0.15 mg levonorgestrel) are packaged with seven yellow tablets containing 10-μg ethinyl estradiol to eliminate the hormone free interval.

[8] = target: T1, aromatase; details: microsomal fraction of human placenta; cited from earlier work
[9] = target: T2, aromatase (Rattus norvegicus, UniProt P22443); details: once weekly administration, adult female rats; cited from earlier work
T2 construct: achieving medical castration in adult female rats; from tissue; host or cells: in vivo, adult female rats
T2 sequence (P22443 1-508): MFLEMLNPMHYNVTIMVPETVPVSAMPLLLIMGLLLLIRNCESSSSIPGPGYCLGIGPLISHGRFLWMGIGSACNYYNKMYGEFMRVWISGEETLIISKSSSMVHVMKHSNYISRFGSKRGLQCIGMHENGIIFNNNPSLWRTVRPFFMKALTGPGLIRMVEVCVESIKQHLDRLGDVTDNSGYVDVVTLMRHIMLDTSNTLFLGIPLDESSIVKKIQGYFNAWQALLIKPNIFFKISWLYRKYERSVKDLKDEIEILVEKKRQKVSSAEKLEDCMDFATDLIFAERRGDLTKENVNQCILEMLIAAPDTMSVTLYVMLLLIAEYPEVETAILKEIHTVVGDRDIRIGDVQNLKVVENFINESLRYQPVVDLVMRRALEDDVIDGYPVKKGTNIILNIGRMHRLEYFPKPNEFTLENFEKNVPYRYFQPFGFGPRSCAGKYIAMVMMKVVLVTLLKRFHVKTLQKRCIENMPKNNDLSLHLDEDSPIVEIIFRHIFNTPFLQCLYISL

[10] = female, human, in vivo, 0.01 mg
[11] = female, human, in vivo, 0.03 mg

Compound: N#Cc1ccc(C(F)(c2ccc(C#N)cc2)n2cncn2)cc1 [CGP47645, 4,4′-[fluoro-(1-H-1,2,4-triazol-1-yl)methylene]bisbenzonitrile]
- difference in exposure (AUC and Cmax) between male and female dogs ([1]; dogs): no consistent difference
- drug accumulation ([1]; dogs, weekly oral dosing for 4 or 22 weeks versus single dose): no drug accumulation
- increase in exposure (AUC and Cmax) with dose ([1]; male and female dogs, single and multiple doses, all dose levels): generally proportional to the dose increase
- serum testosterone levels [2]: dramatically elevated testosterone levels
- inter-subject variability ([3]; female, human, in vivo): 10-30%
- Tmax ([3]; female, human, in vivo, Tmax): 0.5 to 2 h
- Tmax ([3]; female, human, in vivo, median Tmax): ≤ 1 h
- AUC(0-tlast) Mean [3, 10]: 1.4 ng·h/mL
- Cmax Mean [3, 10]: 0.2 ng/mL
- T1/2 Mean [3, 10]: 55.2 h
- Tmax Median [3, 10]: 1 h
- AUC(0-tlast) Mean [3, 11]: 24.1 ng·h/mL
- Cmax Mean [3, 11]: 0.4 ng/mL
- T1/2 Mean [3, 11]: 396 h
- AUC(0-tlast) Mean ([3]; female, human, in vivo, 0.1 mg): 116.2 ng·h/mL
- Cmax Mean ([3]; female, human, in vivo, 0.1 mg): 1.7 ng/mL
- T1/2 Mean ([3]; female, human, in vivo, 0.1 mg): 564 h
- Tmax Median ([3]; female, human, in vivo, 0.1 mg): 1 h
- Tmax Median ([3]; female, human, in vivo, 0.3 mg): 1 h
- Tmax Median ([3]; female, human, in vivo, 1 mg): 1 h
- Tmax Median ([3]; female, human, in vivo, 3 mg): 1 h
- dose dependence of half-life ([3]; human, in vivo): directly dose dependent
- dose proportionality of Cmax and AUC ([3]; human, in vivo): increased in a dose-proportional manner
- difference in pharmacokinetics between post- and pre-menopausal women ([3]; in vivo): No differences
- minimal toxic dose (MTD) ([3]; single doses 0.01 mg through 20 mg, post-menopausal women): not reached
- lowest single dose at which maximal estrogen suppression was observed ([4]; post-menopausal women, chemiluminescence or radioimmunoassay): 0.1 mg
- lowest single dose at which transient estrogen suppression was seen ([4]; postmenopausal women): 0.01 mg
- estrone suppression compared with letrozole ([4]; postmenopausal women, doses of 0.1 mg and 0.3 mg): at least equal to letrozole
- inhibition of estrone, estrone sulfate and estradiol ([4]; women, single ascending doses): dose-dependent inhibition
- average estimated IC40 for aromatase inhibition ([5]; PK/PD analyses, plasma concentration): 0.03 ng/mL
- IC90 ([5]; PK/PD analyses, plasma concentration, read-out: average estimated IC90 for aromatase inhibition): 0.27 ng/mL (≈ 0.89 nM)
- lowest dose with effects on the aromatase-testosterone-estradiol pathway ([5]; females and males with obesity-associated hypogonadotropic hypogonadism, blood levels below IC50): 0.003 mg
- Kp [6]: ≤ 10
- safety of co-administration with continuously dosed COC ([7]; in vivo): may be co-administered safely
- pharmacokinetic parameters with COC compared with single ascending dose study without COC ([7]; in vivo, po): similar
- mode of aromatase inhibition [8]: competitive inhibitor
- effective dose achieving medical castration [9]: 3 mg/kg

Compound: C#C[C@]1(O)CC[C@H]2[C@@H]3CCC4=CC(=O)CC[C@@H]4[C@H]3CC[C@@]21CC [levonorgestrel, reference compound]
- steady state pharmacokinetic profile with 1 mg CGP47645 versus placebo ([7]; Day 29, surgically sterile healthy premenopausal women, COC 30 μg ethinyl estradiol and 0.15 mg levonorgestrel): similar
